The record followed here is patent US12022844B2, “Nutritional composition, food/drink composition using nutritional composition, and modified milk powder using nutritional composition” (priority 2018, dated 2024).

Holding throughout (type): cell-based
For test [1], the system named is Lactobacillus paracasei ATCC 25302. The test can be described thus: Mix-culturing with Bifidobacterium bifidum by HMO as sugar source, quantitative PCR. The note with it: for Proliferation rate (number of bacteria after mix-culturing for 8 h/number of bacteria after single bacterial culturing): ATCC 25302^7 mix-cultured with Bifidobacterium bifidum (NITE BP-02429), sugar source 2%, Table 8; for Proliferation ratio of Lactobacillus paracasei ATCC 25302^T (mix-cultured bacteria after 8 h/single bacterial culturing 8 h): Table 12; for number of proliferating bacteria of Lactobacillus paracasei ATCC 25302^T in combination with seven strains of Bifidobacterium bifidum compared to single bacterium culture: summary of Table 12. The procedure:
(§1) A10% solution of glucose (manufactured by Nakarai Tesque Inc.), and 2′-FL ((≥95%) Funakoshi, available from sigma), and LNnT (manufactured by ELICITYL) as examples of HMOs was prepared with ion exchanged water, and was subjected to sterile filtration using Millex-GV (SLGV033RS).
(§2) Lactobacilli MRS Broth (BD) (0.05% L-Cysteine Hydrochloride for Bacteria of the genus Bifidobacterium) was added to strains of Table 1 below (bacteria belonging to Bifidobacterium bifidum) and Table 2 below. After a sterilization treatment, 3% of the bacterial solution was inoculated, and anaerobically cultured (pre-pre cultured) at 37° C. for 16 h.
(§3) The following day, 1% glucose was added to a modified BL agar medium (“Studies on Bifidobacteria” by Tomotari Mitsuoka, p. 306, Japan Bifidus Foundation, issued in 1994) noted in Table 3, for preparation. After a sterilization treatment, 3% of the pre-pre cultured bacterial solution was inoculated, and anaerobically pre-cultured (pre-cultured) at 37° C. for 12 h.
(§4) The pre-cultured bacterial solution was collected and washed once with a sterile physiological saline solution. Then, mass-up was performed to an equal volume with the modified BL agar medium (“Studies on Bifidobacteria” by Tomotari Mitsuoka, p. 306, Japan Bifidus Foundation, issued in 1994) noted in Table 3 to prepare a suspended bacterial solution.
(§5) The modified BL agar medium (“Studies on Bifidobacteria” by Tomotari Mitsuoka, p. 306, Japan Bifidus Foundation, issued in 1994) noted in Table 3 was prepared at a capacity of 60%, and was subjected to an autoclave sterilization treatment. Then, 40% of each sugar solution prepared in (1) was aseptically added so as to prepare a medium with a sugar concentration of 4%.
(§6) The medium prepared in the above (3) was dispensed at a capacity that is half the capacity for aseptic culturing in a 96-well plate, and each of the bacterial solutions of strains of bacteria belonging to Bifidobacterium bifidum in Table 1 and probiotics having a low ability to assimilate human milk oligosaccharides in Table 2, which was prepared in the above (2), was dispensed at a remaining […] capacity into the medium prepared in the above (3) such that the bacterial solution had 12%. Then, a final sugar concentration was set to 2%. The plate into which the bacterial solution was dispensed was anaerobically cultured at 37° C. for 8 h.
(§7) OD650 was measured from each well in the plates in the above (4) and the above (5) before (0 h) culturing and after (8 h) culturing, by MICROPLATE READER SH-9000 (manufactured by CORONA ELECTRIC). After turbidity measurement, microbial cells were collected, and DNA extraction was performed. After the DNA extraction, the number of proliferating bacteria of Bifidobacteria/lactobacilli was analyzed by using the bacterial species-specific primer noted in Table 4, by a quantitative PCR method (see “Structural analysis of intestinal flora”—analysis of bacterial flora in human feces using quantitative PCR—by Kouichi Watanabe, Enterobacteriological journal, 20:35-42, 2006).
(§8) It was decided to culture Bifidobacterium bifidum (NITE BP-02429) in which availability of 2′-FL or LNnT was found as described above, in combination with strains in Table 2, which cannot use 2′-FL or LNnT. Bifidobacterium bifidum (NITE BP-02429) and the strains in Table 2, which cannot use 2′-FL or LNnT, were mix-cultured by 2′-FL or LNnT as a sugar source, and after culturing for 8 h, the proliferation rate of the number of bacteria of each strain (proliferation rate=the number of bacteria after mix-culturing for 8 h/the number of bacteria after single bacterial culturing) was measured by a quantitative PCR method using each strain-specific oligonucleotide primer noted in Table 4, for the strain in Table 2.
Seven strains of Bifidobacterium bifidum in Table 1 and Lactobacillus paracasei ATCC 25302^T which cannot use 2′-FL or LNnT were mix-cultured by 2′-FL or LNnT as a sugar source. […]

Test [2] relates to Bifidobacterium bifidum NITE BP-02429. The test can be described thus: Single bacterial culturing with HMO as sugar source, OD650. Conditions: 8 h. The procedure:
as §1, §2, §3, §4
The modified BL agar medium (“Studies on Bifidobacteria” by Tomotari Mitsuoka, p. 306, Japan Bifidus Foundation, issued in 1994) noted in Table 3 was prepared at a capacity of 60%, and was subjected to an autoclave sterilization treatment. Then, 40% of each sugar solution prepared in (1) was aseptically added so as to prepare a medium with a sugar concentration of 4%. […]
OD650 was measured from each well in the plates in the above (4) and the above (5) before (0 h) culturing and after (8 h) culturing, by MICROPLATE READER SH-9000 (manufactured by CORONA ELECTRIC). […] After the DNA extraction, the number of proliferating bacteria of Bifidobacteria/lactobacilli was analyzed by using the bacterial species-specific primer noted in Table 4, by a quantitative PCR method (see “Structural analysis of intestinal flora”—analysis of bacterial flora in human feces using quantitative PCR—by Kouichi Watanabe, Enterobacteriological journal, 20:35-42, 2006).
(§9) Regarding bacteria belonging to Bifidobacterium bifidum in Table 1, each strain was cultured as a single bacterium by 2′-FL or LNnT (HMOs) as a sugar source, and OD650 was measured. […]
Regarding strains in Table 2, each strain was cultured as a single bacterium by 2′-FL or LNnT (HMOs) as a sugar source, and OD650 was measured. […]

For test [3], the system named is bacteria belonging to Bifidobacterium bifidum in Table 1. The experiment in a line: Availability of HMOs by bacteria belonging to Bifidobacterium bifidum (single culturing, summary). Conditions: single bacterial culturing, 8 h; summary of Table 5. The procedure: (§10) The medium prepared in the above (3) was dispensed at a capacity that is half the capacity for culturing in a 96-well plate, and the bacterial solution prepared in the above (2) was dispensed at a remaining half capacity such that the bacterial solution had 6%. Then, a final sugar concentration was set to 2%. The plate into which the bacterial solution was dispensed was anaerobically cultured at 37° C. for 8 h.
as §7, §9

The subject of test [4] is strains in Table 2 except for Bifidobacterium infantis. The experiment in a line: Availability of HMOs by probiotics (single culturing, summary). The note with it: single bacterial culturing, 8 h; summary of Tables 6 and 7. On the procedure:
as §10, §7
Regarding strains in Table 2, each strain was cultured as a single bacterium by 2′-FL or LNnT (HMOs) as a sugar source, and OD650 was measured. The results for 2′-FL are noted in Table 6 below, and the results for LNnT are noted in Table 7 below.

For test [5], the system named is Bifidobacterium longum subspecies longum BB536. The test can be described thus: Mix-culturing with Bifidobacterium bifidum by HMO as sugar source, quantitative PCR. Conditions: for Proliferation rate (number of bacteria after mix-culturing for 8 h/number of bacteria after single bacterial culturing): BB536 mix-cultured with Bifidobacterium bifidum (NITE BP-02429), sugar source 2%, Table 8; for Proliferation rate of BB536 (mix-cultured bacteria after 8 h/single bacterial culturing 8 h): Table 9; for proliferation of BB536 through mix-culturing with bacteria belonging to Bifidobacterium bifidum: summary of Table 9. On the procedure: as §1, §2, §3, §4, §5, §6, §7, §8
Seven strains of Bifidobacterium bifidum in Table 1 and Bifidobacterium longum subspecies longum BB536 which cannot use 2′-FL or LNnT were mix-cultured by 2′-FL or LNnT as a sugar source. […]

The test system of test [6] is Bifidobacterium adolescentis ATCC15703. The test is described as above. Conditions: ATCC 15703^7 mix-cultured with Bifidobacterium bifidum (NITE BP-02429), sugar source 2%, Table 8. The procedure:
as §1, §2, §3, §4, §5, §6, §7, §8

Test [7] relates to Lactobacillus plantarum ATCC14917. The test is described as above. Conditions: ATCC 14917^T mix-cultured with Bifidobacterium bifidum (NITE BP-02429), sugar source 2%, Table 8. The procedure:
as §1, §2, §3, §4, §5, §6, §7, §8

Setting [8] is: mix-cultured with Bifidobacterium bifidum ATCC 29521^T.
The mark [9] stands for this setting: mix-cultured with Bifidobacterium bifidum NITE BP-1252.
Setting [10] is: mix-cultured with Bifidobacterium bifidum NITE BP-02429.
Where [11] appears, read: mix-cultured with Bifidobacterium bifidum NITE BP-02431.
[12] abbreviates: mix-cultured with Bifidobacterium bifidum NITE BP-02432.
[13] abbreviates: mix-cultured with Bifidobacterium bifidum NITE BP-02433.
Where [14] appears, read: mix-cultured with Bifidobacterium bifidum NITE P-02648.
The mark [15] stands for this setting: NITE BP-02429, sugar source 2%, anaerobic 37° C., Table 5.

For `CC(=O)N[C@H]1[C@H](O[C@H]2[C@@H](O)[C@@H](CO)O[C@@H](O[C@H]3[C@H](O)[C@@H](O)C(O)O[C@@H]3CO)[C@@H]2O)O[C@H](CO)[C@@H](O[C@@H]2O[C@H](CO)[C@H](O)[C@H](O)[C@H]2O)[C@@H]1O` (mixture of isomers) [LNnT, lacto-N-neotetraose], the “Proliferation rate (number of bacteria after mix-culturing for 8 h/number of bacteria after single bacterial culturing)” value is listed as 4.23 in test [1], 2.13 in test [5], 1.53 in test [6] and 2.58 in test [7]. Moreover, the “Proliferation ratio of Lactobacillus paracasei ATCC 25302^T (mix-cultured bacteria after 8 h/single bacterial culturing 8 h)” value (from here on “Proliferation ratio”) in test [1] (setting [8]) is reported as 4.26; in test [1] (setting [9]) it was 9.18; in test [1] (setting [10]), 8.04; in test [1] (setting [11]) it was 10.10; in test [1] (setting [12]), 8.76; in test [1] (setting [13]) it was 8.85. Also, the “Proliferation ratio” value in test [1] (setting [14]) was determined as 14.78. Moreover, in test [1], the “number of proliferating bacteria of Lactobacillus paracasei ATCC 25302^T in combination with seven strains of Bifidobacterium bifidum compared to single bacterium culture” value is given as “promoted”. Further, the OD650 increase value in test [2] (NITE BP-02429 (PC: positive control), sugar source 2%, Table 7) is reported as 0.608; in test [2] (setting [15]), 0.608. Further, the “assimilability by all the bacteria belonging to Bifidobacterium bifidum in Table 1” value in test [3] was “had assimilability”. Further, the “assimilability by strains in Table 2 except for Bifidobacterium infantis” value in test [4] is given as “had no assimilability in 2′-FL or LNnT (HMOs), or a low assimilability”. In addition, the “Proliferation rate of BB536 (mix-cultured bacteria after 8 h/single bacterial culturing 8 h)” value (“Proliferation rate of BB536” below) is 1.07 in test [5] (setting [8]); 1.64 in test [5] (setting [9]); 3.57 in test [5] (setting [10]); 3.02 in test [5] (setting [11]); 1.51 in test [5] (setting [12]); 3.08 in test [5] (setting [13]). The “Proliferation rate of BB536” value in test [5] (setting [14]) is recorded as 4.95. The “proliferation of BB536 through mix-culturing with bacteria belonging to Bifidobacterium bifidum” value in test [5] is recorded as “proliferates”.
Take 2′-fucosyllactose [2′-FL]: the “Proliferation rate (number of bacteria after mix-culturing for 8 h/number of bacteria after single bacterial culturing)” value in test [1] is 6.92; in test [5], 4.30; in test [6] it was 1.91; in test [7], 1.76. In addition, the “Proliferation ratio” value in test [1] (setting [8]) was 2.28; in test [1] (setting [9]), 1.98; in test [1] (setting [10]), 4.21; in test [1] (setting [11]) it was 3.25; in test [1] (setting [12]), 2.01; in test [1] (setting [13]) it was 3.23. Further, in test [1] (setting [14]), the “Proliferation ratio” value was found to be 4.23. Also, the “number of proliferating bacteria of Lactobacillus paracasei ATCC 25302^T in combination with seven strains of Bifidobacterium bifidum compared to single bacterium culture” value in test [1] is “promoted”. For the same compound, the “OD650 increase value” in test [2] (NITE BP-02429(PC), sugar source 2%, Table 6) is reported as 0.135; in test [2] (setting [15]), 0.167. Further, the “assimilability by all the bacteria belonging to Bifidobacterium bifidum in Table 1” value in test [3] was “had assimilability”. Also, the “assimilability by strains in Table 2 except for Bifidobacterium infantis” value in test [4] is on record as “had no assimilability in 2′-FL or LNnT (HMOs), or a low assimilability”. Besides, the “Proliferation rate of BB536” value in test [5] (setting [8]) came to 1.35; in test [5] (setting [9]), 3.17; in test [5] (setting [10]), 4.13; in test [5] (setting [11]) it was 6.33; in test [5] (setting [12]) it was 3.16; in test [5] (setting [13]), 5.90. In test [5] (setting [14]), the “Proliferation rate of BB536” value was found to be 9.97. Moreover, the “proliferation of BB536 through mix-culturing with bacteria belonging to Bifidobacterium bifidum” value in test [5] is recorded as “proliferates”.
